Test results published in PubChem BioAssay (NCI).
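96-well plates; 48 h exposure; 5 concentrations. Endpoints by linear interpolation between flanking doses. Not reached: highest tested concentration assigned. GI50 is the concentration that inhibits growth by half. The concentration for full growth arrest is given as TGI.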

Assays:
Assay in all cases: NCI tumour cell line growth inhibition, 48 h
EKVX NSCLC = tested on: EKVX NSCLC
HCT-15 colon = tested on: HCT-15 colon
K-562 leukemia = tested on: K-562 leukemia
MALME-3M melanoma = tested on: MALME-3M melanoma
NCI-H23 lung = tested on: NCI-H23 lung
NCI-H522 lung = tested on: NCI-H522 lung
OVCAR-8 ovarian = tested on: OVCAR-8 ovarian
SK-MEL-28 melanoma = tested on: SK-MEL-28 melanoma
SK-OV-3 ovarian = tested on: SK-OV-3 ovarian
TK-10 renal = tested on: TK-10 renal

Row | Compound | TGI (EKVX NSCLC) | TGI (HCT-15 colon) | TGI (K-562 leukemia) | TGI (MALME-3M melanoma) | TGI (NCI-H23 lung) | TGI (NCI-H522 lung) | TGI (OVCAR-8 ovarian) | TGI (SK-MEL-28 melanoma) | TGI (SK-OV-3 ovarian) | TGI (TK-10 renal) | GI50 (EKVX NSCLC) | GI50 (HCT-15 colon) | GI50 (K-562 leukemia) | GI50 (MALME-3M melanoma) | GI50 (NCI-H23 lung) | GI50 (NCI-H522 lung) | GI50 (OVCAR-8 ovarian) | GI50 (SK-MEL-28 melanoma) | GI50 (TK-10 renal)
1 | Cc1cc(S(=O)(=O)Nc2nc3cc(-c4ccc(Cl)cc4)sc3c(=O)n2N)c(S)cc1Cl | > 100 µM | > 100 µM | > 100 µM | > 100 µM | > 100 µM | > 100 µM | > 100 µM | > 100 µM | > 100 µM | > 100 µM | – | – | – | – | – | – | – | – | –
2 | CCC(=O)ONC(=O)Cn1ccc([N+](=O)[O-])n1 | > 100 µM | – | > 100 µM | > 100 µM | > 100 µM | > 100 µM | > 100 µM | > 100 µM | > 100 µM | > 100 µM | – | – | – | – | – | – | – | – | –
3 | C[N+]12CCCCC1C(CN1C(=O)Cc3c4ccccc4c(c4ccccc34)CC1=O)CCC2 (stereo not given) | > 100 µM | > 100 µM | > 100 µM | > 100 µM | > 100 µM | > 100 µM | > 100 µM | > 100 µM | > 100 µM | > 100 µM | – | – | – | – | – | – | – | – | –
4 | CCOC(=O)NC(Nc1ccc([N+](=O)[O-])cc1)(C(F)(F)F)C(F)(F)F | > 100 µM | > 100 µM | > 100 µM | > 100 µM | > 100 µM | > 100 µM | > 100 µM | > 100 µM | > 100 µM | > 100 µM | – | – | – | – | – | – | – | – | –
5 | NC(CCC(=O)NC(CSCC1C(=O)Nc2ccccc21)C(=O)NCC(=O)O)C(=O)O (stereo not given) | 31.2 µM | 11 µM | – | 20 µM | 11.3 µM | 2.8 µM | 13.4 µM | 14.5 µM | > 49.4 µM | 18.9 µM | – | – | – | – | – | – | – | – | –
6 | CC(C(O)Cc1ccccc1)N(C)N=Nc1ccc([N+](=O)[O-])cc1 (stereo not given) | 73.2 µM | 61 µM | > 100 µM | 43.3 µM | 48.1 µM | – | 33.7 µM | 39.9 µM | 63.9 µM | 47.7 µM | – | – | – | – | – | – | – | – | –
7 | Oc1cccc(-c2nc3cc(F)ccc3s2)c1 | 32.5 µM | 56.4 µM | > 100 µM | 48.6 µM | 70.7 µM | 25.7 µM | 51.2 µM | 50.3 µM | 70 µM | 37.4 µM | – | – | – | – | – | – | – | – | –
8 | CC(=O)NC1c2ccccc2C(C)(C)C12CCC1(CC2)OCCO1 (stereo not given) | > 100 µM | > 100 µM | > 100 µM | > 100 µM | > 100 µM | > 100 µM | > 100 µM | > 100 µM | > 10 µM | > 100 µM | – | – | – | – | – | – | – | – | –
9 | COc1nc2nccnc2c(=O)n1C | > 10 µM | > 10 µM | > 10 µM | > 10 µM | > 10 µM | > 10 µM | > 10 µM | > 10 µM | > 10 µM | > 10 µM | – | – | – | – | – | – | – | – | –
10 | CSc1cnc2ccccc2c1SC1CN(Cc2ccccc2)c2ccccc2C1=O (stereo not given) | > 100 µM | > 100 µM | > 100 µM | > 100 µM | > 100 µM | > 100 µM | – | > 100 µM | > 100 µM | > 100 µM | – | – | – | – | – | – | – | – | –
11 | OCc1ccc(C2CC(c3ccco3)=NN2c2ccccc2)o1 (stereo not given) | > 100 µM | > 100 µM | > 100 µM | > 100 µM | > 100 µM | > 100 µM | > 100 µM | > 100 µM | – | > 100 µM | – | – | – | – | – | – | – | – | –
12 | CC1=C(CO)C(=O)O[C@@H]([C@@H](CO)[C@H]2CCC3C4C[C@@H](O)[C@@]5(O)CC=CC(=O)[C@]5(C)C4CC[C@@]32C)C1 (stereo not given in full) | > 100 µM | > 100 µM | > 100 µM | > 100 µM | > 100 µM | > 100 µM | > 100 µM | – | > 100 µM | > 100 µM | – | – | – | – | – | – | – | – | –
13 | O=C1/C(=C/c2ccc(Cl)cc2)CSc2ccccc21 | – | > 100 µM | 92.1 µM | 74.4 µM | 45.1 µM | – | > 100 µM | 44.1 µM | > 100 µM | > 100 µM | – | – | – | – | – | – | – | – | –
14 | COC(=O)C1=C(C)NC(C)=C(C(=O)OC)C1c1nc2sccn2c1[N+](=O)[O-] | > 100 µM | > 100 µM | > 100 µM | – | > 100 µM | – | > 100 µM | > 100 µM | > 100 µM | > 100 µM | – | – | – | – | – | – | – | – | –
15 | Nc1ccn(C2OC(CO)C(O)C2O)c(=O)c1 (stereo not given) | – | > 625 µM | – | 365 µM | > 625 µM | > 625 µM | > 625 µM | > 625 µM | > 625 µM | – | – | – | – | – | – | – | – | – | –
16 | S=C(Nc1ccc2c(c1)oc1ccccc12)c1cccnc1 | > 100 µM | > 100 µM | – | > 100 µM | > 100 µM | 64 µM | > 100 µM | > 100 µM | 40.7 µM | > 100 µM | – | – | – | – | – | – | – | – | –
17 | Cc1cc(NCc2ccccc2)c2ccccc2[n+]1CCCCCCCCCC[n+]1c(C)cc(NCc2ccccc2)c2ccccc21 | 13.4 µM | 5.88 µM | – | > 100 µM | 1.86 µM | 44.3 µM | 6.71 µM | 2.16 µM | 6.85 µM | 3.17 µM | – | – | – | – | – | – | – | – | –
18 | CN(C)c1ccc(C2SCC(=O)N2c2ccc(Oc3ccc(Cl)cc3)c(Cl)c2)cc1 (stereo not given) | 60.5 µM | 55.8 µM | – | 38.4 µM | 45.4 µM | 42.9 µM | 86.4 µM | > 100 µM | 60.4 µM | > 100 µM | – | – | – | – | – | – | – | – | –
19 | COc1ccc(-c2nn(-c3ccc(NC(=O)Nc4cc(C(F)(F)F)cc(C(F)(F)F)c4)cc3)cc2-c2ccncc2)cc1Cl | > 100 µM | > 100 µM | > 100 µM | 7.88 µM | > 100 µM | 7.01 µM | > 100 µM | 6.18 µM | – | 7.25 µM | 3.22 µM | 2.88 µM | 2.77 µM | 2.11 µM | 2.78 µM | 1.9 µM | 3.27 µM | 2.22 µM | 1.85 µM
20 | CC(C)NC(=O)OCCN=c1c2ccccc2ccc2ccccc12 | > 100 µM | > 100 µM | > 100 µM | > 100 µM | > 100 µM | – | > 100 µM | > 100 µM | > 100 µM | > 100 µM | – | – | – | – | – | – | – | – | –
21 | Cn1c2ccccc2c(=O)c2cccc(C(=O)NC(CCCN=C(N)N)C(=O)O)c21 (stereo not given) | > 100 µM | > 100 µM | > 100 µM | > 100 µM | > 100 µM | – | > 100 µM | > 100 µM | > 100 µM | > 100 µM | – | – | – | – | – | – | – | – | –
